In data set [1] the target is T1, human OX2 receptor (Homo sapiens, UniProt O43614).
T1 construct: expressed in transfected cells
T1 sequence (O43614 1-444): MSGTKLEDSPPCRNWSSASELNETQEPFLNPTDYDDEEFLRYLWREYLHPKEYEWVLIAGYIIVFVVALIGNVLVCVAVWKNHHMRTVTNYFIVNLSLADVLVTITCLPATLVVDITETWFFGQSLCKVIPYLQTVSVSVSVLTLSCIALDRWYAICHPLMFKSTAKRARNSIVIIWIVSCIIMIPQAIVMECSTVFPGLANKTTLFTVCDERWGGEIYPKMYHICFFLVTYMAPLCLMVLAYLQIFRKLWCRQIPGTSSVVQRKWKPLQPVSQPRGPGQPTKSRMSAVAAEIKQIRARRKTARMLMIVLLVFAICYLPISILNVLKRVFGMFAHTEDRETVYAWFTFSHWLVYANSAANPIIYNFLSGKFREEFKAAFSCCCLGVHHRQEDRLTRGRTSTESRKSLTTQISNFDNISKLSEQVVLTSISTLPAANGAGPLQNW
In words: Measurement of orexin type 2 receptor agonist activity (Experimental Example 3; calcium 5 dye, FLIPR Tetra). Type of data set: cell-based. The following applies: compound at 1 μM; CHO cells expressing human OX2 receptor; DMSO = 0%, 10 nM orexin A (human) = 100%. Here is the method: In order to obtain cell clones that stably express human orexin type 2 receptor, human orexin type 2 (residues 1-444, NCBI Reference Sequence: AK314279) was constructed in a pcDNA3.1 (+) vector (Invitrogen) to express in mammalian cells. This plasmid DNA was transfected into CHO-K1 cells by electroporation, and stable clones were obtained by limiting dilution using resistance to G418 as a selection marker.
CHO cells in which human OX2 receptor was forcibly expressed were seeded at 5,000 cells/well into a 384-well black transparent bottom plate (Costar) in 25 ul complete media, and were then incubated at 37° C., 5% CO2 for 1 day. The next day, 25 ul of 2× calcium 5 dye (Molecular Devices) in assay buffer (HBSS (Thermo Fisher Scientific), 20 mM HEPES (Thermo Fisher Scientific), 2.5 mM probenecid). After incubation in a 5% CO2 incubator at 37° C. for 40 minutes, it was incubated at room temperature for another 20 minutes. Add 5 μL/well of the test compound diluted with assay buffer B (HBSS, 20 mM HEPES), using FLIPR Tetra (Molecular Devices) to measure the fluorescence value every 1 second for 1 minute, and then every 2 seconds for 1 minute. It was measured for 1 minute and 40 seconds. The amount of fluorescence value when DMSO is added instead of the test compound is defined as 0%, and the amount of fluorescence value when orexin A (human) (Peptide Institute) with a final concentration of 10 nM is added is defined as 100%. The activity (%) of the test compound was calculated.

The target of data set [2] is T1, human OX2 receptor. In words: Measurement of orexin type 2 receptor agonist activity (Experimental Example 2; Fluo-4 AM calcium fluorescence, FDSS μCELL). Type of data set: cell-based. The following applies: compound at 3 μM; CHO cells expressing human OX2 receptor; DMSO = 0%, 10 nM orexin A (human) = 100%. The essentials:
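Agonism was tested in CHO-K1 cells stably expressing human OX2 receptor (residues 1-444), loaded with Fluo-4 AM plus probenecid. Calcium fluorescence was recorded for 1 min 40 s after compound addition. Activity (%) was scaled between DMSO (0%) and 10 nM orexin A (100%) and reported at 3 μM compound.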

Where two headings read alike, the source gives them in different places.

On to `CCS(=O)(=O)N[C@@H]1[C@@H]2Cc3ccc(C)c(c3F)Oc3nc(ccc3C)CNC(=O)N2CC1(F)F` [Example 101, N-[(15aS,16R)-17,17,20-trifluoro-7,11-dimethyl-1-oxo-2,3,15a,16,17,18-hexahydro-1H,15H-4,8-(azeno)-10,14-(metheno)pyrrolo[1,2-j][1,8,10]oxadiazacyclohept-adecin-16-yl]ethanesulfonamide], for which, on human OX2 receptor [1], the “OX2R agonist activity (1 μM, %)” value is 108%.
The molecule `Cc1ccc2nc1Oc1cccc(c1)C[C@H]1[C@@H](NS(C)(=O)=O)CCN1C(=O)NC2` [Example 1, N-[(15aS,16S)-7-methyl-1-oxo-2,3,15a,16,17,18-hexahydro-1H,15H-4,8-(azeno)-10,14-(metheno)pyrrolo[1,2-j][1,8,10]oxadiazacyclo-heptadecin-16-yl]methanesulfonamide] had a ring closure, yield of all isomers (from Cc1ccc(CN)nc1Oc1cccc(C[C@@H]2NCC[C@@H]2NS(C)(=O)=O)c1, other bond, CDI/DIPEA, DMF, 2.15 mM, 25.0 °C, 12.0 h) of 29.9%. Also, the “OX2R agonist activity (3 μM, %)” value on human OX2 receptor [2] stood at 107%.
Turning to `CCS(=O)(=O)N[C@@H]1[C@@H]2Cc3cccc(c3F)Cc3cc(ccc3C)CNC(=O)N2CC1(F)F` [Example 103, N-[(15aS,16R)-17,17,20-trifluoro-7-methyl-1-oxo-2,3,15a,16,17,18-hexahydro-1H,9H,15H-4,8:10,14-di(metheno)pyrrolo[1,2-c][1,3]diazacycloheptadecin-16-yl]ethanesulfonamide], on human OX2 receptor [1], the “OX2R agonist activity (1 μM, %)” value was 104%.
Molecule `Cc1ccc2nc1Oc1cccc(c1)C[C@H]1[C@@H](NS(C)(=O)=O)CCN1C(=O)CC2` [Example 7, N-[(1S,19aS)-11-methyl-5-oxo-2,3,6,7,19,19a-hexahydro-1H, 5H-8,12-(azeno)-14,18-(metheno)pyrrolo[2,1-h][1,9]oxazacycloheptadecin-1-yl]methanesulfonamide] displayed a ring closure, yield of all isomers (from Cc1ccc(CCC(=O)O)nc1Oc1cccc(C[C@@H]2NCC[C@@H]2NS(C)(=O)=O)c1, amide bond, PyBOP/TEA, THF, 0.231 mM, 25.0 °C, 4.0 h) of 20%. At human OX2 receptor [2], the “OX2R agonist activity (3 μM, %)” value was 103%.
`Cc1ccc2nc1Oc1cccc(c1F)C[C@H]1[C@@H](NS(C)(=O)=O)C(F)(F)CN1C(=O)NC2C` (stereo partly drawn) [Example 51, N-[(15aS,16R)-17,17,20-trifluoro-3,7-dimethyl-1-oxo-2,3,15a,16,17,18-hexahydro-1H,15H-4,8-(azeno)-14,10-(metheno)pyrrolo[1,2-j][1,8,10]oxadiazacyclo-heptadecin-16-yl]methanesulfonamide (optical isomer)] returned a ring closure, yield of all isomers (from Cc1ccc(C(C)N)nc1Oc1cccc(C[C@@H]2NCC(F)(F)[C@@H]2NS(C)(=O)=O)c1F, other bond, di(N-succinimidyl) carbonate, THF, 1.23 mM, 60.0 °C) of 7.7%. Further, the “OX2R agonist activity (3 μM, %)” value on human OX2 receptor [2] was 103%.
Take `Cc1ccc2nc1Oc1cccc(c1)C[C@H]1[C@@H](NS(C)(=O)=O)C(F)(F)CN1C(=O)NC2` [Example 2, N-[(15aS,16R)-17,17-difluoro-7-methyl-1-oxo-2,3,15a,16,17,18-hexahydro-1H,15H-4,8-(azeno)-10,14-(metheno)pyrrolo[1,2-j][1,8,10]oxadiazacyclo-heptadecin-16-yl]methanesulfonamide]: the ring closure, yield of all isomers (from Cc1ccc(CN)nc1Oc1cccc(C[C@@H]2NCC(F)(F)[C@@H]2NS(C)(=O)=O)c1, other bond, CDI/DIPEA, DMF, 2.0 mM, 25.0 °C, 14.0 h) is 7.6%. Further, the “OX2R agonist activity (3 μM, %)” value on human OX2 receptor [2] came out at 96%.
With `Cc1ccc2nc1COc1cccc(c1F)C[C@H]1[C@@H](NS(C)(=O)=O)C(F)(F)CN1C(=O)NC2` [Example 54, N-[(16aS,17R)-18,18,21-trifluoro-7-methyl-1-oxo-2,3,16a,17,18,19-hexahydro-1H,9H,16H-4,8-(azeno)-11,15-(metheno)pyrrolo[2,1-h][1,9,11]oxadiazacyclo-octadecin-17-yl]methanesulfonamide], the ring closure, yield of all isomers (from Cc1ccc(CNC(=O)OC(C)(C)C)nc1COc1cccc(C[C@H]2[C@@H](NS(C)(=O)=O)C(F)(F)CN2C(=O)OC(C)(C)C)c1F, other bond, di(N-succinimidyl) carbonate / N-methylmorpholine, DIPEA, THF, 2.78 mM, 60.0 °C, 22.0 h, 2 steps) is 14.4%. In addition, at human OX2 receptor [2], the “OX2R agonist activity (3 μM, %)” value was 87%.
Under “from CCS(=O)(=O)N[C@@H]1[C@H](Cc2cccc(Cc3nc(CN)ccc3C)c2F)NC[C@@H]1F, other bond, di(N-succinimidyl) carbonate / 4-methylmorpholine, DIPEA, THF, 4.1 mM, 25.0 °C, 17.0 h”, `CCS(=O)(=O)N[C@H]1[C@@H](F)CN2C(=O)NCc3ccc(C)c(n3)Cc3cccc(c3F)C[C@@H]12` [Example 56, N-[(15aS,16R,17S)-17,20-difluoro-7-methyl-1-oxo-2,3,15a,16,17,18-hexahydro-1H,9H,15H-8,4-(azeno)-10,14-(metheno)pyrrolo[1,2-c][1,3]diazacycloheptadecin-16-yl]ethanesulfonamide] gave a ring closure, yield of all isomers of 3.9%. Besides, the “OX2R agonist activity (3 μM, %)” value on human OX2 receptor [2] turned out to be 100%.
Take `Cc1ccc2nc1Oc1cccc(c1F)C[C@H]1[C@@H](NS(C)(=O)=O)[C@@H](F)CN1C(=O)NC2` [Example 10, N-[(15aS,16R,17S)-17,20-difluoro-7-methyl-1-oxo-2,3,15a,16,17,18-hexahydro-1H,15H-4,8-(azeno)-14,10-(metheno)pyrrolo[1,2-j][1,8,10]oxadiazacyclo-heptadecin-16-yl]methanesulfonamide]: the ring closure, yield of all isomers (from Cc1ccc(CN)nc1Oc1cccc(C[C@@H]2NC[C@H](F)[C@@H]2NS(C)(=O)=O)c1F, other bond, CDI, THF, 2.12 mM, 25.0 °C, 18.0 h) is 16.7%. The “OX2R agonist activity (3 μM, %)” value at human OX2 receptor [2] turned out to be 96%.
On to `Cc1cc(F)c2nc1Oc1cccc(c1F)C[C@H]1[C@@H](NS(C)(=O)=O)C(F)(F)CN1C(=O)NC2` [Example 36, N-[(15aS,16R)-5,17,17,20-tetrafluoro-7-methyl-1-oxo-2,3,15a,16,17,18-hexahydro-1H,15H-4,8-(azeno)-14,10-(metheno)pyrrolo[1,2-j][1,8,10]oxadiazacyclo-heptadecin-16-yl]methanesulfonamide], for which, where the note is “from Cc1cc(F)c(CN)nc1Oc1cccc(C[C@@H]2NCC(F)(F)[C@@H]2NS(C)(=O)=O)c1F, other bond, di(N-succinimidyl) carbonate, THF, 2.95 mM, 60.0 °C, 1.5 h, 2 steps”, the ring closure, yield of all isomers stood at 38.2%. Besides, on human OX2 receptor [2], the “OX2R agonist activity (3 μM, %)” value was determined as 104%.
Molecule `Cc1ccc2nc1Oc1cccc(c1F)C[C@H]1[C@@H](NS(C)(=O)=O)C(F)(F)CN1C(=O)NC2` [Example 4, N-[(15aS,16R)-17,17,20-trifluoro-7-methyl-1-oxo-2,3,15a,16,17,18-hexahydro-1H,15H-4,8-(azeno)-10,14-(metheno)pyrrolo[1,2-j][1,8,10]oxadiazacyclo-heptadecin-16-yl]methanesulfonamide] registered a ring closure, yield of all isomers (from Cc1ccc(CN)nc1Oc1cccc(C[C@@H]2NCC(F)(F)[C@@H]2NS(C)(=O)=O)c1F, other bond, di(N-succinimidyl) carbonate/DIPEA, THF, 7.42 mM, 25.0 °C, 16.0 h) of 40.1%. Moreover, the “OX2R agonist activity (3 μM, %)” value at human OX2 receptor [2] was 105%.
Where the note is “from Cc1ccc(CNC(=O)OC(C)(C)C)nc1OCc1cccc(C[C@H]2[C@@H](N(COCC[Si](C)(C)C)S(C)(=O)=O)CCN2C(=O)OC(C)(C)C)c1, other bond, di(N-succinimidyl) carbonate / N-methylmorpholine, DIPEA, THF, 7.5 mM, 25.0 °C, 17.0 h, 2 steps”, `Cc1ccc2nc1OCc1cccc(c1)C[C@H]1[C@@H](NS(C)(=O)=O)CCN1C(=O)NC2` [Example 68, N-[(16aS,17S)-7-methyl-1-oxo-2,3,16a,17,18,19-hexahydro-1H,10H,16H-4,8-(azeno)-11,15-(metheno)pyrrolo[1,2-j][1,8,10]oxadiazacyclo-octadecin-17-yl]methanesulfonamide] came in with a ring closure, yield of all isomers of 3.7%. The “OX2R agonist activity (3 μM, %)” value at human OX2 receptor [2] turned out to be 100%.
Where the note is “from Cc1ccc(OCC(=O)O)nc1Oc1cccc(C[C@@H]2NCC[C@@H]2NS(C)(=O)=O)c1, amide bond, PyBOP, THF, 0.92 mM, 25.0 °C, 12.0 h”, `Cc1ccc2nc1Oc1cccc(c1)C[C@H]1[C@@H](NS(C)(=O)=O)CCN1C(=O)CO2` [Example 33, N-[(15aS,16S)-7-methyl-1-oxo-1,2,15a,16,17,18-hexahydro-15H-4,8-(azeno)-10,14-(metheno)pyrrolo[1,2-d][1,12,4]dioxazacyclo-heptadecin-16-yl]methanesulfonamide] came in with a ring closure, yield of all isomers of 3.4%. For the same molecule, the “OX2R agonist activity (3 μM, %)” value at human OX2 receptor [2] stood at 102%.

(Values after patent publication US20240309016A1, “MACROCYCLIC HETEROCYCLE COMPOUNDS AND USE THEREOF” (TAKEDA PHARMACEUTICAL COMPANY LIMITED, priority 2023, published 2024).)
